Measured values published in patent publication US20060052582A1, “Identification of inhibitors of mitosis” (priority 2002, published 2006).

Key:
[1] = system: Nek6; assay: Nek6 kinase assay in vitro with p70S6K ΔCT104 as substrate; format: biochemical, human
Method: Transiently expressed FLAG Nek6 was incubated for 1 hour at 4° C. alone or with increasing quantities of either purified prokaryotic recombinant GST (lanes 6-8) or prokaryotic recombinant GST Nercc1 (732-979) (lanes 2-5). Nek6 activity was assayed using p70S6K ΔCT104 as substrate. Upper panel: mean±S.E.M. percent of control Nek6 activity. Lower panels: ^32P autoradiography, Coomassie stain of the GST Nercc1 (732-979) or GST proteins, and western blot of the FLAG Nek6 wild type.
Immunoprecipitates (IP) of recombinant Nek6 (using anti-FLAG or anti-myc antibodies) or endogenous Nek6 were washed three times in the extraction buffer containing 0.5 M LiCl, and twice in kinase buffer (50 mM MOPS pH 7.4, 10 mM MgCl2, 2 mM EGTA, 20 mM β-glycerophosphate). Kinase assays were performed in 30 μl kinase buffer containing 1.5 μg GST-p70S6K ΔCT104 (Thr252Ala) or MBP (0.2 mg/ml) and initiated by addition of [γ-^32P] ATP (5 μM final concentration at 4000 cpm/pmol). Reactions were incubated for 10 minutes at 30° C. and terminated by the addition of 4×SDS sample buffer. Kinase mixtures were resolved by SDS-PAGE, transferred to PVDF membrane, and Nek6 phosphotransferase activity determined by excising Coomassie stained bands corresponding to the substrate and measuring radioactive content by Cerenkov scintillation counting.

[2] = system: p70S6K; assay: Activity of endogenous p70S6K immunoprecipitated from H4-II-E-C3 hepatoma cells; format: cell-based, rat; conditions: for IC50: insulin-stimulated H4 cells, insulin plus increasing inhibitor concentrations for 30 minutes, read-out: IC50 for inhibition of p70S6K activity
Method: (§1) Endogenous Nek6 polypeptide was immunoprecipitated from lysates of rat H4-II-E-C3 hepatoma cells following prior treatment for varying times (min) with 100 nM insulin (FIG. 12B), or insulin plus increasing concentrations of either wortmannin (FIG. 12C) or rapamycin (FIG. 12D) for 30 minutes. Nek6 kinase activity was measured using GST p70S6K ΔCT104 (Thr252Ala) as substrate (see, text for details). The activity of endogenous p70S6K αI/II, immunoprecipitated from the same lysates, was measured using a synthetic peptide substrate. Kinase activities are expressed as either fold increase in baseline activity (as in FIG. 12B; open circles show Nek6 activity; filled squares show p70S6K activity) or as histograms depicting the percent activity remaining for Nek6 (filled bars) or p70S6K (open bars) (as in FIGS. 12C and 12D).
The regulation of endogenous Nek6 activity in vivo was examined. An affinity purified anti-Nek6 peptide antibody raised against a polypeptide comprising an amino terminal murine Nek6 peptide AGQPSHMPHGGSPN (SEQ ID NO:30) conjugated to KLH via a cysteine residue as described above, gave highly specific immunoblots and was capable of modest immunoprecipitation of the endogenous Nek6 polypeptide, although at very low efficiency. Thus far, useful antibodies reactive with endogenous Nek7 have not been obtained. Nek6 immunoreactivity was evident in several commonly used mammalian cell lines including COS7 cells (FIG. 12A). […] Moreover, Nek6 had been isolated as a candidate p70S6 Kinase-Thr412 kinase, and insulin regulation of endogenous p70S6 Kinase (also referred to as p70S6K) had previously been characterized in this cell line (see, Price et al., Proc. Natl. Acad. Sci. USA, 87: 7944-7948 (1990)). Insulin generated a rapid, fifteen-fold activation of endogenous p70S6Kinase in serum-deprived H4 cells; under these conditions, however, no change occurred in the basal activity of immunoprecipitated endogenous Nek6 (FIG. 12B). […] The specific activity of Nek6 in H4 cells is, however, sensitive to serum withdrawal and declines progressively by 80% over 48 hours (FIG. 12E). […]

[3] = system: HeLa cells; assay: Leptomycin B treatment, endogenous Nercc localization in HeLa cells; format: cell-based, human
Method: (§2) Cells grown on coverslips were rinsed with PBS, fixed in methanol at −20° C. for 15 min, rinsed twice with PBS and incubated for 30 min at room temperature with the appropriate dilution of primary antibody in PBS. To visualize endogenous Nercc, affinity purified anti-Nercc peptide antibodies (N1 and C1) were employed at 10 μg/ml. Microtubules were visualized with a α/β-tubulin specific antibody. Coverslips were washed with PBS, and incubated with labeled secondary antibodies from corresponding species in appropriate combination-fluorescein or rhodamine X-conjugated donkey anti-rabbit, Cy2 or rhodamine X-conjugated donkey anti-mouse (each at 1:450). Incubation was terminated with a rinse in PBS, and the coverslips were mounted on a microscope slide. For immunodetection blocking, Nercc1 C1- or N1-antibody was incubated for 30 min at 37° C. with a 15-fold molar excess of immunizing peptide. After centrifugation at 12,000× g for 10 min, the mixture was used for immunoblotting or immunocytochemistry, as indicated. To examine the effects of Leptomycin B treatment on Nercc localization, HeLa or BHK21 cells were grown to subconfluency on 25 mm round glass coverslips in DMEM supplemented with 10% fetal bovine serum and penicillin-streptomycin. BHK21 cells were transfected (Fugene, Roche Molecular Biochemicals) with the wild type FLAG Nercc; medium was replaced after 18 hours (h). […]

[4] = system: BHK cells; assay: Leptomycin B treatment, Nercc localization in transfected BHK cells; format: cell-based, hamster
Method: as §2

[5] = system: Nek6; assay: Activity of endogenous Nek6 immunoprecipitated from H4-II-E-C3 hepatoma cells; format: cell-based, rat; conditions: serum-deprived H4 cells; 100 nM insulin
Method: as §1
Immunoprecipitates (IP) of recombinant Nek6 (using anti-FLAG or anti-myc antibodies) or endogenous Nek6 were washed three times in the extraction buffer containing 0.5 M LiCl, and twice in kinase buffer (50 mM MOPS pH 7.4, 10 mM MgCl2, 2 mM EGTA, 20 mM β-glycerophosphate). […] Kinase mixtures were resolved by SDS-PAGE, transferred to PVDF membrane, and Nek6 phosphotransferase activity determined by excising Coomassie stained bands corresponding to the substrate and measuring radioactive content by Cerenkov scintillation counting. […]

Nek6, sequence (Q9HC98 whole entry): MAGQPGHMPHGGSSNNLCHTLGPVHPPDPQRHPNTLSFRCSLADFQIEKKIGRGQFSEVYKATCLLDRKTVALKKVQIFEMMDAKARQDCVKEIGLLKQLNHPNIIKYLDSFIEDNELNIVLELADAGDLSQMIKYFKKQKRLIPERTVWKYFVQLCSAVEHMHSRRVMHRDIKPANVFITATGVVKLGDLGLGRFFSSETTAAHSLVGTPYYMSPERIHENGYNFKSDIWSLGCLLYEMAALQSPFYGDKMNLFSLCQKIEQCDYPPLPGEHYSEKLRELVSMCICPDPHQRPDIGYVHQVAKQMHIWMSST

Compound: GST Nercc1 (732-979): fusion protein of GST linked to Nercc amino acids 732-979 of SEQ ID NO:2
- mode of inhibition of Nek6 catalytic activity [1]: noncompetitive
- effect on enzymatic activity of preactivated wild type Nek6 ([1]; concentrations far below those of p70S6K ΔCT104 substrate): substantial inhibition

Compound: CO[C@H]1C[C@@H]2CC[C@@H](C)[C@@](O)(O2)C(=O)C(=O)N2CCCC[C@H]2C(=O)O[C@H]([C@H](C)C[C@@H]2CC[C@@H](O)[C@H](OC)C2)CC(=O)[C@H](C)/C=C(\C)[C@@H](O)[C@@H](OC)C(=O)[C@H](C)C[C@H](C)/C=C/C=C/C=C/1C [rapamycin]
- IC50 [2]: ~2 nM

Compound: COC[C@H]1OC(=O)c2coc3c2[C@@]1(C)C1=C(C3=O)[C@@H]2CCC(=O)[C@@]2(C)C[C@H]1OC(C)=O [wortmannin]
- IC50 [2]: ~30 nM

Compound: CCC(=C/[C@H](C)C/C=C/C(C)=C/[C@@H](C)C(=O)[C@@H](C)[C@H](O)[C@@H](C)C/C(C)=C/C(=O)O)/C=C/[C@@H]1OC(=O)C=C[C@@H]1C [Leptomycin B]
- response of endogenous Nercc localization [3]: lack of response
- endogenous RanBP1 fluorescence in the nucleus ([4]; 20 nM, 30 minutes incubation): increased dramatically
- localization of wild type Nercc ([4]; 2, 20 and 200 nM, 30 minutes to 24 hours): remained cytoplasmic

Compound: Insulin: insulin, used at 100 nM to stimulate H4 cells
- activation of endogenous p70S6Kinase ([2]; serum-deprived H4 cells, 100 nM insulin): fifteen-fold
- change in basal activity of immunoprecipitated endogenous Nek6 [5]: no change
